We go through 61 molecules from a melting point compilation (Tetko et al.; mined from patent text by program, amines drawn as free bases though some values may be those of a salt).

As a reminder, the melting point is the temperature, or range, at which the solid turns liquid.

Some results are limits rather than exact numbers.

The molecule `CC1CC1n1cc(C(=O)O)c(=O)c2cc(F)c(N3CCC(N)C3)c(F)c21` (stereo unspecified) registered a melting point of 267 to 275 °C.

`Cc1c(C2CCC(c3ccccc3)(N(C)C)CC2)[nH]c2ccc(C#N)cc12` (stereo unspecified) yielded a melting point of 235 to 240 °C.

Molecule `O=c1c2ncn3c2n(c(=O)n1Cc1ccc([N+](=O)[O-])cc1)CC=C3c1cccc(C(F)(F)F)c1` displayed a melting point of 230 to 232 °C.

The molecule `CC(C)Nc1nc(-n2cccn2)nc(Cl)c1-c1c(F)cccc1Cl` came in with a melting point of 94 to 98 °C.

As for `Cc1n[nH]c2cc(F)c(C3C(C#N)=C(C(F)F)NC(C(F)F)=C3C#N)cc12`, the melting point was found to be 282 °C.

Take `O=[N+]([O-])c1ccc2c(c1)Sc1cc(OC/C=C/I)ccc1N2`: the melting point is above 250 °C.

`FC(F)(F)c1cccc(CSc2nnc(-c3ccnc4[nH]ccc34)o2)c1` had a melting point of 164 to 165 °C.

`COc1cc(CCCC2SC(=O)NC2=O)ccc1OCc1csc(CCc2ccccc2)n1` (stereo unspecified) displayed a melting point of 104 to 105 °C.

`CN1CCC(N(C)S(=O)(=O)c2ccc(Nc3nccc(Nc4cc(F)c(F)c(F)c4)n3)cc2)CC1` yielded a melting point of 227 °C.

`CN(CC(=O)O)C(=S)c1cc(-c2ccccc2)nc2ccccc12`: the melting point lay within 228 to 230 °C.

Molecule `CC(C)c1ccc(S(=O)(=O)n2c(CCCC(=O)O)cc3cc(Cl)ccc32)cc1` registered a melting point of 148 °C.

In turn, `CCCCCCCCc1ccc(CCC(CO)(CO)NC(C)=O)cc1` registered a melting point of 66 to 68 °C.

`Oc1ccc(Nc2ccn(-c3ccccc3)n2)cc1` yielded a melting point of 147 to 148 °C.

On to `COC(=O)Cc1ccc(OC(=S)N(C)C)cc1F`, for which the melting point lay within 113 to 114 °C.

The molecule `Cc1cc(-c2cc(C(F)(F)F)n3ncc(C(=O)Nc4cccc(S(=O)(=O)NC5CC5)c4)c3n2)ccc1C(F)(F)F` returned a melting point of 201 °C.

As for `COc1cc(-c2nc(N)sc2CCC2CCCCC2)c(OC)cc1C`, the melting point was 112 °C.

With `CCN(CC)CCNc1nc(N2CCCC2)nc2ccccc12`, the melting point lay in the range of 87 to 90 °C.

`CCCCc1c(C(=O)N(C)Cc2ccc3c(Br)c(OCc4nnn[nH]4)ccc3c2)oc2ccccc12` displayed a melting point of 180 to 183 °C.

Turning to `O=C1N(CCc2noc(C(F)(F)F)n2)c2ccccc2C12COc1cc3c(cc12)OCO3` (stereo unspecified), the melting point was in the range of 45 to 48 °C.

With `CCOCc1nc2c(N)nc3cc(N4CCOC4=O)ccc3c2n1CCCOC(C)C`, the melting point fell in the range of 166 to 167 °C.

`CC(C)(C)OC(=O)N1CCN(C(=O)N2CCC(c3[nH]nc4c3C(=O)c3c(NC(=O)NN5CCOCC5)cccc3-4)CC2)CC1` registered a melting point of 231 to 232 °C.

On to `CCOc1n[nH]c(=O)n1C`, for which the melting point was determined as 126 °C.

As for `CCC(=O)OC1(C(=O)CO)CCC2C3CC(C)C4=CC(=O)CCC4(C)C3C(O)CC21C` (stereo unspecified), the melting point was found to be 197 °C.

Molecule `COC(=O)CCc1cc2cc(Cl)ccc2n1S(=O)(=O)c1ccc(C(C)=O)cc1` came in with a melting point of 83 to 87 °C.

`O=C(O)[C@@H](CSCc1ccccc1)N1C(=O)C=CC1=O` returned a melting point of 86 to 87 °C.

Turning to `COc1ccc(Sc2ccccc2CCl)cc1`, the melting point was in the range of 76 to 78 °C.

For the molecule `NC(=O)c1cccc(-c2c(F)ccc3cc(Cc4cccc(C(F)(F)F)c4)sc23)c1`, the melting point is 166 to 167 °C.

In the case of `CCOCc1nc2c(N)nc3cc(-c4ccccc4)cnc3c2n1CCCONC(C)C`, the melting point fell in the range of 142 to 144 °C.

`CC(C)C(=O)n1ccc(-c2ccc(Oc3ccccc3)cc2)n1` gave a melting point of 49 to 51 °C.

Molecule `NC(=NO)c1ccc(C(F)(F)F)cn1` had a melting point of 130 to 133 °C.

Molecule `O=[N+]([O-])c1ccc2c(c1)C=Cc1ccc(Br)cc1S2` came in with a melting point of 190 to 192 °C.

`NC(=O)CN1CCN(c2cccccc2=O)CC1` came in with a melting point of 169 to 171 °C.

For `Cc1nc(NC(=O)c2cccc(OC(F)(F)F)c2)sc1C(=O)NCc1ccccc1`, the melting point was in the range of 230 to 232 °C.

`O=C(O)c1ccc(O)c(Nc2cc(Cl)cc(Cl)c2)c1` returned a melting point of 166 to 167 °C.

Molecule `N#Cc1ccccc1Sc1ccc(Cl)cc1` showed a melting point of 82 °C.

For `COc1cc(OC)nc(Oc2ccc3ccccc3c2C(=O)OCC=NOCC=CCl)n1`, the melting point lay within 77 to 83 °C.

For the molecule `CC1CC(=O)NN=C1c1ccc(N2CCN(c3ncccn3)CC2)c(N)c1` (stereo unspecified), the melting point lay in the range of 220 to 221 °C.

With `N#Cc1cc(C(=O)c2ccc(C(F)(F)F)cc2)cc(O)c1O`, the melting point was 204 to 206 °C.

Molecule `Cc1cc(O)c(C)c(C)c1NC=O` displayed a melting point of 219 to 220 °C.

Consider `C=CC(=O)N1CCc2cc(OC)c(OC)cc2C12CCC(C(=O)OCC)(C(=O)OCC)CC2C1c2cc(OC)c(OC)cc2CCN1C(C)=O` (stereo unspecified), for which the melting point was 162 to 165 °C.

Turning to `COc1cccc(Oc2ncccc2C(=O)NCc2ccccc2Cl)c1`, the melting point is 71 to 74 °C.

With `Cc1c(O)c(=O)ccn1CC(C)C`, the melting point fell in the range of 170 to 171 °C.

`CCC(Oc1c(C(C)C)cccc1C(C)C)C(=O)OC1CC(O)C=C2C=CC(C)C(CCC3CC(O)CC(=O)O3)C21` (mixture of isomers) had a melting point of 119 to 121 °C.

In turn, `Cc1nc(-c2cnccn2)no1` gave a melting point of 100 to 104 °C.

For the molecule `c1cn(CCCCn2ccnc2)cn1`, the melting point is 84 to 86 °C.

`CCCCNC(=O)Oc1ccc(C(O)(CC)c2cccc(C(F)(F)F)c2)c(OC(=O)NCCCC)c1` (stereo unspecified) gave a melting point of 110 to 111 °C.

Turning to `COc1cccc(CNS(=O)(=O)c2ccc(C(CC3CCCC3)C(=O)Nc3nc4ccc(OC)nc4s3)cc2)c1` (stereo unspecified), the melting point was 179 to 181 °C.

`O=C(c1cc2ccc(F)cc2[nH]1)C12CC3CC(CC(C3)C1)C2` returned a melting point of 242 to 244 °C.

On to `CCSC(C)(C)C(=O)CC(=O)Nc1cc(NC(=O)CCCOc2ccc(C(C)(C)CC)cc2C(C)(C)CC)ccc1OC`, for which the melting point lay in the range of 57 to 60 °C.

In turn, `COCCN1CCc2cc(Nc3ncc(Cl)c(Nc4ccccc4S(=O)(=O)N(C)C)n3)c(OC)cc2CC1` came in with a melting point of 54 to 64 °C.

`O=C1c2cc(Cl)ccc2Cc2cccc(Cl)c21` gave a melting point of 160 to 165 °C.

Molecule `Cc1cc(C)c2c(c1)C(NC(=O)c1conc1C)CCC2` (stereo unspecified) came in with a melting point of 57 to 58 °C.

`Cc1nnc(-c2ccc3occ(-c4cc(C(F)(F)F)ccc4Cl)c3c2)o1` had a melting point of 188 to 189 °C.

On to `CNC(=O)c1cccc2c(-c3ccccc3)c([N+](=O)[O-])oc12`, for which the melting point was in the range of 167 to 169 °C.

`COc1nc(N)nc(C2CC2)n1` gave a melting point of 158 to 159 °C.

For the molecule `CC(COc1ccc(C(=O)O)c(O)c1)C[Si](C)(O[Si](C)(C)C)O[Si](C)(C)C` (stereo unspecified), the melting point fell in the range of 117 to 118 °C.

For the molecule `O=CN(O)C(CCO)CS(=O)(=O)c1ccc(-c2ccc(C(F)(F)F)cc2)cc1` (stereo unspecified), the melting point lay within 186 to 189 °C.

Molecule `COc1ccc(OC)c(C=C2NC(=O)NC2=O)c1` returned a melting point of 250 to 252 °C.

`FC(F)(F)c1ccc2nc3c(nc2c1)OCC1CCCCN31` (stereo unspecified) gave a melting point of 154 to 156 °C.

`CCN1C(=O)C(C)(C)C(=O)N(C)c2cc(CN(CCn3ccc4oc(C)cc4c3=O)Cc3n[nH]c4c(C)cccc34)ccc21` showed a melting point of 111 to 118 °C.

`CCc1nn(C(=O)NS(=O)(=O)c2ccccc2C(=O)OC)c(=O)n1C`: the melting point was 131 °C.
